Numbers after ± are expanded uncertainties.
Test: xn = mol fraction of the nth substance listed
Conditions: 100 kPa, Liquid; for electrical conductivity: Alternating current cell with electrodes; for mass density: Vibrating tube method; for viscosity: Capillary tube (Ostwald / Ubbelohde) method

CCCC[N+]1(C)CCCC1.N#CN=C=[N-] [1-butyl-1-methylpyrrolidinium dicyanamide] + O=C1CCCO1
electrical conductivity (313.15 K, Frequency=0.00694444 MHz, x1 = 0.4985): 2.88 ± 0.029 S/m | electrical conductivity (313.15 K, Frequency=0.00694444 MHz, x1 = 0.6954): 2.43 ± 0.025 S/m | electrical conductivity (313.15 K, Frequency=0.00694444 MHz, x1 = 0.9013): 2.09 ± 0.021 S/m | electrical conductivity (313.15 K, Frequency=0.00694444 MHz, x1 = 1): 2 ± 0.02 S/m | electrical conductivity (313.15 K, Frequency=0.0075 MHz, x1 = 0.0463): 1.79 ± 0.032 S/m | electrical conductivity (313.15 K, Frequency=0.0075 MHz, x1 = 0.0987): 2.73 ± 0.034 S/m | electrical conductivity (313.15 K, Frequency=0.0075 MHz, x1 = 0.1449): 3.13 ± 0.033 S/m | electrical conductivity (313.15 K, Frequency=0.0075 MHz, x1 = 0.1859): 3.37 ± 0.034 S/m | electrical conductivity (313.15 K, Frequency=0.0075 MHz, x1 = 0.2493): 3.36 ± 0.034 S/m | electrical conductivity (313.15 K, Frequency=0.0075 MHz, x1 = 0.3029): 3.321 ± 0.033 S/m | electrical conductivity (313.15 K, Frequency=0.0075 MHz, x1 = 0.3845): 3.16 ± 0.032 S/m | electrical conductivity (313.15 K, Frequency=0.0075 MHz, x1 = 0.4985): 2.88 ± 0.029 S/m | electrical conductivity (313.15 K, Frequency=0.0075 MHz, x1 = 0.6954): 2.43 ± 0.025 S/m | electrical conductivity (313.15 K, Frequency=0.0075 MHz, x1 = 0.9013): 2.09 ± 0.021 S/m | electrical conductivity (313.15 K, Frequency=0.0075 MHz, x1 = 1): 2 ± 0.02 S/m | electrical conductivity (313.15 K, Frequency=0.008 MHz, x1 = 0.0463): 1.79 ± 0.032 S/m | electrical conductivity (313.15 K, Frequency=0.008 MHz, x1 = 0.0987): 2.73 ± 0.034 S/m | electrical conductivity (313.15 K, Frequency=0.008 MHz, x1 = 0.1449): 3.13 ± 0.033 S/m | electrical conductivity (313.15 K, Frequency=0.008 MHz, x1 = 0.1859): 3.37 ± 0.034 S/m | electrical conductivity (313.15 K, Frequency=0.008 MHz, x1 = 0.2493): 3.36 ± 0.034 S/m | electrical conductivity (313.15 K, Frequency=0.008 MHz, x1 = 0.3029): 3.321 ± 0.033 S/m | electrical conductivity (313.15 K, Frequency=0.008 MHz, x1 = 0.3845): 3.16 ± 0.032 S/m | electrical conductivity (313.15 K, Frequency=0.008 MHz, x1 = 0.4985): 2.88 ± 0.029 S/m | electrical conductivity (313.15 K, Frequency=0.008 MHz, x1 = 0.6954): 2.43 ± 0.025 S/m | electrical conductivity (313.15 K, Frequency=0.008 MHz, x1 = 0.9013): 2.09 ± 0.021 S/m | electrical conductivity (313.15 K, Frequency=0.008 MHz, x1 = 1): 2 ± 0.02 S/m | electrical conductivity (313.15 K, Frequency=0.00857143 MHz, x1 = 0.0463): 1.79 ± 0.032 S/m | electrical conductivity (313.15 K, Frequency=0.00857143 MHz, x1 = 0.0987): 2.73 ± 0.034 S/m | electrical conductivity (313.15 K, Frequency=0.00857143 MHz, x1 = 0.1449): 3.13 ± 0.033 S/m | electrical conductivity (313.15 K, Frequency=0.00857143 MHz, x1 = 0.1859): 3.37 ± 0.034 S/m | electrical conductivity (313.15 K, Frequency=0.00857143 MHz, x1 = 0.2493): 3.36 ± 0.034 S/m | electrical conductivity (313.15 K, Frequency=0.00857143 MHz, x1 = 0.3029): 3.321 ± 0.033 S/m | electrical conductivity (313.15 K, Frequency=0.00857143 MHz, x1 = 0.3845): 3.16 ± 0.032 S/m | electrical conductivity (313.15 K, Frequency=0.00857143 MHz, x1 = 0.4985): 2.88 ± 0.029 S/m | electrical conductivity (313.15 K, Frequency=0.00857143 MHz, x1 = 0.6954): 2.43 ± 0.025 S/m | electrical conductivity (313.15 K, Frequency=0.00857143 MHz, x1 = 0.9013): 2.09 ± 0.021 S/m | electrical conductivity (313.15 K, Frequency=0.00857143 MHz, x1 = 1): 2 ± 0.02 S/m | electrical conductivity (313.15 K, Frequency=0.00892857 MHz, x1 = 0.0463): 1.79 ± 0.032 S/m | electrical conductivity (313.15 K, Frequency=0.00892857 MHz, x1 = 0.0987): 2.73 ± 0.034 S/m | electrical conductivity (313.15 K, Frequency=0.00892857 MHz, x1 = 0.1449): 3.13 ± 0.033 S/m | electrical conductivity (313.15 K, Frequency=0.00892857 MHz, x1 = 0.1859): 3.37 ± 0.034 S/m | electrical conductivity (313.15 K, Frequency=0.00892857 MHz, x1 = 0.2493): 3.36 ± 0.034 S/m | electrical conductivity (313.15 K, Frequency=0.00892857 MHz, x1 = 0.3029): 3.321 ± 0.033 S/m | electrical conductivity (313.15 K, Frequency=0.00892857 MHz, x1 = 0.3845): 3.16 ± 0.032 S/m | electrical conductivity (313.15 K, Frequency=0.00892857 MHz, x1 = 0.4985): 2.88 ± 0.029 S/m | electrical conductivity (313.15 K, Frequency=0.00892857 MHz, x1 = 0.6954): 2.43 ± 0.025 S/m | electrical conductivity (313.15 K, Frequency=0.00892857 MHz, x1 = 0.9013): 2.09 ± 0.021 S/m | electrical conductivity (313.15 K, Frequency=0.00892857 MHz, x1 = 1): 2 ± 0.02 S/m | electrical conductivity (313.15 K, Frequency=0.00961538 MHz, x1 = 0.0463): 1.79 ± 0.032 S/m | electrical conductivity (313.15 K, Frequency=0.00961538 MHz, x1 = 0.0987): 2.73 ± 0.034 S/m | electrical conductivity (313.15 K, Frequency=0.00961538 MHz, x1 = 0.1449): 3.13 ± 0.033 S/m | electrical conductivity (313.15 K, Frequency=0.00961538 MHz, x1 = 0.1859): 3.37 ± 0.034 S/m | electrical conductivity (313.15 K, Frequency=0.00961538 MHz, x1 = 0.2493): 3.36 ± 0.034 S/m | electrical conductivity (313.15 K, Frequency=0.00961538 MHz, x1 = 0.3029): 3.322 ± 0.033 S/m | electrical conductivity (313.15 K, Frequency=0.00961538 MHz, x1 = 0.3845): 3.16 ± 0.032 S/m | electrical conductivity (313.15 K, Frequency=0.00961538 MHz, x1 = 0.4985): 2.88 ± 0.029 S/m | electrical conductivity (313.15 K, Frequency=0.00961538 MHz, x1 = 0.6954): 2.43 ± 0.025 S/m | electrical conductivity (313.15 K, Frequency=0.00961538 MHz, x1 = 0.9013): 2.09 ± 0.021 S/m | electrical conductivity (313.15 K, Frequency=0.00961538 MHz, x1 = 1): 2 ± 0.02 S/m | electrical conductivity (313.15 K, Frequency=0.01 MHz, x1 = 0.0463): 1.79 ± 0.032 S/m | electrical conductivity (313.15 K, Frequency=0.01 MHz, x1 = 0.0987): 2.73 ± 0.034 S/m | electrical conductivity (313.15 K, Frequency=0.01 MHz, x1 = 0.1449): 3.13 ± 0.033 S/m | electrical conductivity (313.15 K, Frequency=0.01 MHz, x1 = 0.1859): 3.37 ± 0.034 S/m | electrical conductivity (313.15 K, Frequency=0.01 MHz, x1 = 0.2493): 3.36 ± 0.034 S/m | electrical conductivity (313.15 K, Frequency=0.01 MHz, x1 = 0.3029): 3.322 ± 0.033 S/m | electrical conductivity (313.15 K, Frequency=0.01 MHz, x1 = 0.3845): 3.16 ± 0.032 S/m | electrical conductivity (313.15 K, Frequency=0.01 MHz, x1 = 0.4985): 2.88 ± 0.029 S/m | electrical conductivity (313.15 K, Frequency=0.01 MHz, x1 = 0.6954): 2.43 ± 0.025 S/m | electrical conductivity (313.15 K, Frequency=0.01 MHz, x1 = 0.9013): 2.09 ± 0.021 S/m | electrical conductivity (313.15 K, Frequency=0.01 MHz, x1 = 1): 2 ± 0.02 S/m | mass density (313.15 K, x1 = 0.0987): 1090.51 ± 8.7 kg/m3 | mass density (313.15 K, x1 = 0.1859): 1075.67 ± 8.6 kg/m3 | mass density (313.15 K, x1 = 0.3029): 1059.04 ± 8.5 kg/m3 | mass density (313.15 K, x1 = 0.4985): 1037.83 ± 8.3 kg/m3 | mass density (313.15 K, x1 = 0.6954): 1022.16 ± 8.2 kg/m3 | mass density (313.15 K, x1 = 0.9013): 1009.87 ± 8.1 kg/m3 | mass density (313.15 K, x1 = 1): 1005.06 ± 8.1 kg/m3 | electrical conductivity (323.15 K, x1 = 0.0463): 2.01 ± 0.037 S/m | electrical conductivity (323.15 K, x1 = 0.0987): 3.08 ± 0.039 S/m | electrical conductivity (323.15 K, x1 = 0.1449): 3.57 ± 0.038 S/m | electrical conductivity (323.15 K, x1 = 0.1859): 3.85 ± 0.039 S/m | electrical conductivity (323.15 K, x1 = 0.2493): 3.89 ± 0.039 S/m | electrical conductivity (323.15 K, x1 = 0.3029): 3.88 ± 0.039 S/m | electrical conductivity (323.15 K, x1 = 0.3845): 3.74 ± 0.038 S/m | electrical conductivity (323.15 K, x1 = 0.4985): 3.46 ± 0.035 S/m | electrical conductivity (323.15 K, x1 = 0.6954): 2.99 ± 0.03 S/m | electrical conductivity (323.15 K, x1 = 0.9013): 2.633 ± 0.026 S/m | electrical conductivity (323.15 K, x1 = 1): 2.529 ± 0.025 S/m | viscosity (323.15 K, x1 = 0.0987): 1.87 ± 0.04 mPa·s | viscosity (323.15 K, x1 = 0.1859): 2.58 ± 0.06 mPa·s | viscosity (323.15 K, x1 = 0.3029): 3.77 ± 0.08 mPa·s | viscosity (323.15 K, x1 = 0.4985): 6.36 ± 0.14 mPa·s | viscosity (323.15 K, x1 = 0.6954): 9.69 ± 0.22 mPa·s | viscosity (323.15 K, x1 = 0.9013): 13.92 ± 0.32 mPa·s | viscosity (323.15 K, x1 = 1): 16.15 ± 0.37 mPa·s | electrical conductivity (323.15 K, Frequency=0.0005 MHz, x1 = 0.0463): 1.99 ± 0.036 S/m | electrical conductivity (323.15 K, Frequency=0.0005 MHz, x1 = 0.0987): 3.06 ± 0.039 S/m | electrical conductivity (323.15 K, Frequency=0.0005 MHz, x1 = 0.1449): 3.56 ± 0.038 S/m | electrical conductivity (323.15 K, Frequency=0.0005 MHz, x1 = 0.1859): 3.816 ± 0.038 S/m | electrical conductivity (323.15 K, Frequency=0.0005 MHz, x1 = 0.2493): 3.88 ± 0.039 S/m | electrical conductivity (323.15 K, Frequency=0.0005 MHz, x1 = 0.3029): 3.85 ± 0.039 S/m | electrical conductivity (323.15 K, Frequency=0.0005 MHz, x1 = 0.3845): 3.726 ± 0.037 S/m | electrical conductivity (323.15 K, Frequency=0.0005 MHz, x1 = 0.4985): 3.45 ± 0.035 S/m | electrical conductivity (323.15 K, Frequency=0.0005 MHz, x1 = 0.6954): 2.99 ± 0.03 S/m | electrical conductivity (323.15 K, Frequency=0.0005 MHz, x1 = 0.9013): 2.622 ± 0.026 S/m | electrical conductivity (323.15 K, Frequency=0.0005 MHz, x1 = 1): 2.525 ± 0.025 S/m | electrical conductivity (323.15 K, Frequency=0.001 MHz, x1 = 0.0463): 2 ± 0.036 S/m
